The values below come from patent US9050334B2, “MIF inhibitors and their uses” (INNOV88 LLC, priority 2010, dated 2015).

For assay [1], the target named is T1, Native human MIF (Homo sapiens, UniProt P14174).
T1 sequence (P14174 2-115 limits assumed): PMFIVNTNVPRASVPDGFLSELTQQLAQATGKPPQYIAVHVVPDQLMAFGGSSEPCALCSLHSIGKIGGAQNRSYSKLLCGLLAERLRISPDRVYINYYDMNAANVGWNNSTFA
As to the kind of experiment: MIF tautomerase activity assay with hydroxyphenyl pyruvic acid (HPP) substrate. It counts as biochemical. The settings on record: absorbance at 300 nm. Here is the method: The ability of candidate compounds to inhibit this tautomerase activity are quantitated by using hydroxyphenyl pyruvic acid (HPP) as a substrate (Ouertatani-Sakouhi et al., 2010). The ability of compounds to inhibit the tautomerase activity can be quantitated by following the increase in absorbance due to the enzymatic formation of the HPP enol-borate complex at 300 nm in the absence and presence of a test compound. The IC50 value of compounds are determined by plotting the initial velocities determined at 300 nm as a function of a test compound's concentration. Assays are carried out in a 96 or 384 well plate format. Representative MIF inhibitors were tested in the assay described above and the results tabulated in Table 1 wherein “A” represents≦10 μM; “B” represents>10 μM and <100 μM; “C” represents>100 μM and ≦200 μM; and “D” represents>200 μM.

Assay [2] relates to LPS-stimulated PBMCs. As to the kind of experiment: TNF-α production in LPS-stimulated PBMCs. The settings on record: PBMC; human PBMCs, 25 μM compound preincubated 1 hour, LPS stimulation, 24 hours. It counts as cell-based. Here is the method:
(§1) Effect of Candidate Compounds on Cytokine Production from Human Cells: Mono-Mac-6 Cells: The cellular efficacy of the inhibitors is determined using the human monocytic cell line, Mono-Mac-6 cells (MM6 cells) as it has been shown that MIF induces the production of inflammatory mediators, including tumor necrosis factor-α (TNF-α) interleukin (IL)-1β, IL-6, IL-8, interferon-γ (IFN-γ) and prostaglandin E2 (PGE2) in these cells (Schwartz et al., 2009). Recombinant human MIF (rhMIF) will be purchased from R&D Systems (Minneapolis, Minn.) or generated in house. To induce the production of inflammatory mediators, MM6 cells will be plated at a final concentration of 5×10^5 cells/ml in RPMI 1640 medium containing 1% heat-inactivated low-pyrogen fetal bovine serum, 2 mM GlutaMAX-1,1% non-essential amino acids, 1% sodium pyruvate, 100 units/ml penicillin G and 100 μg/ml streptomycin (Gibco BRL Life Technologies). Cells will be stimulated with 100 ng/ml rhMIF with or without inhibitor for 20 h at 37° C. with 5% CO2. The supernatants were stored at −20° C. until they were assayed. The levels of inflammatory mediators will be determined using commercial ELISA kits from R&D Systems (Minneapolis, Minn.). Human Periperal Blood Mononuclear Cells (PBMC): Human whole blood is collected from healthy donors in sodium-heparinized tubes (BD Biosciences), and peripheral blood mononucleated cells (PBMC) are isolated by Ficoll separation. Cells are washed in Dulbecco's phosphate-buffered saline, resuspended in media (DMEM) containing 5% low endotoxin (<0.3 EU/ml) fetal Bovine Serum (FBS, GIBCO) and 10 units/ml penicillin/streptomycin, and plated at 5×10^5 cells/well in 96-well tissue culture plates. Lipopolysaccharide (LPS, E. coli Serotype 0111:B4, Sigma) or macrophage migration inhibitory factor are pre-incubated for 15 minutes with compounds dissolved in dimethyl sulfoxide (DMSO). The mixtures are then added to cells to yield final concentrations of 1% DMSO, 100 ng/ml LPS and 1 μg/ml MIF. Cells are incubated for overnight at 37° C., 5% CO2. TNF-α production is measured by ELISA (R&D Systems). Cytotoxicity is assessed using the MTT [3-(4,5-dimethylthiazol-2-yl)-2,5-diphenyl tetrazolium bromide assay. Human Rheumatoid Arthritis Synovial Fibroblast (RASF) Cell Line: RASF cells are derived from the inflamed synovium of a RA patient who was undergoing total knee replacement. Cells are cultured in Dulbecco's modified Eagle's medium with 15% FBS, 1% glutamine, and 1% penicillin/streptamycin (all from Gibco (Invitrogen), Gaithersburg, Md.). Experiments are performed with cells between passages 7 to 10, using trypsin with 0.25% ethylene diamine tetraacetic acid (EDTA)(Gibco) to detach cells. Interleukin 1 or macrophage migration inhibitory factor (MIF, GIBCO) are pre-incubated for 15 minutes with compounds dissolved in dimethyl sulfoxide (DMSO). The mixtures are then added to cells to yield final concentrations of 1% DMSO, 1 ng/ml Interleukin 1 or 1 μg/ml MIF. RASFs are incubated with or without stimuli at 37° C. for 20 h for induction of Interelukin 6. Interleukin 6 levels in culture supernatants are quantitated by ELISA. Representative MIF inhibitors were tested in the assay described above, specifically, human peripheral blood mononuclear cells [PBMCs] were isolated and stimulated with either LPS or rhMIF.

Assay [3] concerns rhMIF-stimulated PBMCs. The experiment in a line: TNF-α production in rhMIF-stimulated PBMCs. It counts as cell-based. The settings on record: PBMC; human PBMCs, 25 μM compound preincubated 1 hour, rhMIF stimulation, 24 hours. Here is the method:
as §1, with “Interleukin 1 or macrophage migration inhibitory factor (MIF, GIBCO) are pre-incubated for 15 minutes with compounds dissolved in dimethyl sulfoxide (DMSO). The mixtures are then added to cells to yield final concentrations of 1% DMSO, 1 ng/ml Interleukin 1 or 1 μg/ml MIF. RASFs are incubated with or without stimuli at 37° C. for 20 h for induction of Interelukin 6.” left out, “Representative MIF inhibitors were tested in the assay described above, specifically, human peripheral blood mononuclear cells [PBMCs] were isolated and stimulated with either LPS or rhMIF.” left out

For assay [4], the system named is rhMIF-stimulated PBMCs. The experiment in a line: IL-6 production in rhMIF-stimulated PBMCs. It counts as cell-based. The settings on record: PBMC; human PBMCs, 25 μM compound preincubated 1 hour, rhMIF stimulation, 24 hours. On the procedure: Effect of Candidate Compounds on Cytokine Production from Human Cells: Mono-Mac-6 Cells: The cellular efficacy of the inhibitors is determined using the human monocytic cell line, Mono-Mac-6 cells (MM6 cells) as it has been shown that MIF induces the production of inflammatory mediators, including tumor necrosis factor-α (TNF-α) interleukin (IL)-1β, IL-6, IL-8, interferon-γ (IFN-γ) and prostaglandin E2 (PGE2) in these cells (Schwartz et al., 2009). Recombinant human MIF (rhMIF) will be purchased from R&D Systems (Minneapolis, Minn.) or generated in house. To induce the production of inflammatory mediators, MM6 cells will be plated at a final concentration of 5×10^5 cells/ml in RPMI 1640 medium containing 1% heat-inactivated low-pyrogen fetal bovine serum, 2 mM GlutaMAX-1,1% non-essential amino acids, 1% sodium pyruvate, 100 units/ml penicillin G and 100 μg/ml streptomycin (Gibco BRL Life Technologies). Cells will be stimulated with 100 ng/ml rhMIF with or without inhibitor for 20 h at 37° C. with 5% CO2. The supernatants were stored at −20° C. until they were assayed. The levels of inflammatory mediators will be determined using commercial ELISA kits from R&D Systems (Minneapolis, Minn.). […] Cytotoxicity is assessed using the MTT [3-(4,5-dimethylthiazol-2-yl)-2,5-diphenyl tetrazolium bromide assay. […] Interleukin 6 levels in culture supernatants are quantitated by ELISA. […]

Structures are written as SMILES. pIC50: −log10 of the molar value. A value given as a limit tells only on which side of the number the result lay.

`Cn1c(=O)c(C#N)c(NC2CN(C(=O)c3cccs3)C2)c2ccccc21` [XXIV, 1-methyl-2-oxo-4-(1-(thiophene-2-carbonyl)azetidin-3-ylamino)-1,2-dihydroquinoline-3-carbonitrile] had a pIC50 in assay [1] not below 5.00. The inhibition at 25 µM in assay [2] was 50 to 70%; in assay [3], more than 70%; in assay [4], 10 to 50%.
